Source: PubChem BioAssay AID270 (DTP/NCI, 2004)
Where “and” joins values, the source holds several entries; their conditions need not be identical. Equal entries are not always repeated. Inconclusive results are not listed.

Tested on: BDF1 mice, s.c. Lewis lung carcinoma, T/C %
Assay: NCI In Vivo Anticancer Drug Screen. Data for tumor model Lewis Lung Carcinoma (subcutaneous) in B6D2F1 (BDF1) mice
In short: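 First, mice carry a transplantable tumor. Next, groups receive either compound or vehicle. Finally, survival or tumor dimensions in the dosed animals are divided by the corresponding control figure.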

[1] = endpoint: mean tumor weight, dose: 50.0 mg/kg/injection, schedule: Q01DX011 (ip), vehicle: saline, higher = larger tumour

SMILES: COc1ccc2cc3[n+](cc2c1OC)CCc1cc2c(cc1-3)OCO2
- T/C (endpoint: mean tumor weight, dose: 12.0 mg/kg/injection, schedule: Q01DX011 (ip), vehicle: saline, higher = larger tumour): 96 % of control
- T/C (endpoint: median survival time, dose: 0.12 mg/kg/injection, schedule: Q01DX009 (ip), vehicle: Klucel (hydroxypropylcellulose) (HPC), higher = longer survival): 102 % of control
- T/C (endpoint: median survival time, dose: 0.25 mg/kg/injection, schedule: Q01DX009 (ip), vehicle: Klucel (hydroxypropylcellulose) (HPC), higher = longer survival): 107 % of control
- T/C (endpoint: median survival time, dose: 0.5 mg/kg/injection, schedule: Q01DX009 (ip), vehicle: Klucel (hydroxypropylcellulose) (HPC), higher = longer survival): 112 % of control
- T/C (endpoint: median survival time, dose: 1.0 mg/kg/injection, schedule: Q01DX009 (ip), vehicle: Klucel (hydroxypropylcellulose) (HPC), higher = longer survival): 110 % of control
- T/C (endpoint: median survival time, dose: 2.0 mg/kg/injection, schedule: Q01DX009 (ip), vehicle: Klucel (hydroxypropylcellulose) (HPC), higher = longer survival): 95 % of control
- T/C (endpoint: median survival time, dose: 4.0 mg/kg/injection, schedule: Q01DX009 (ip), vehicle: Klucel (hydroxypropylcellulose) (HPC), higher = longer survival): 100 % of control
- T/C (endpoint: median survival time, dose: 8.0 mg/kg/injection, schedule: Q01DX009 (ip), vehicle: Klucel (hydroxypropylcellulose) (HPC), higher = longer survival): 92 % of control

SMILES: O=NN(CCCl)C(=O)N[C@H]1CCCC[C@H]1Cl
- T/C (endpoint: median survival time, dose: 22.5 mg/kg/injection, schedule: Q01DX001 (ip), vehicle: Klucel (hydroxypropylcellulose) (HPC), higher = longer survival): 106 % of control
- T/C (endpoint: median survival time, dose: 360.0 mg/kg/injection, schedule: Q01DX001 (ip), vehicle: Klucel (hydroxypropylcellulose) (HPC), higher = longer survival): 102 % of control
- T/C (endpoint: median tumor weight (est.), dose: 45.0 mg/kg/injection, schedule: Q01DX001 (ip), vehicle: carboxymethylcellulose (CMC), higher = larger tumour): 89 % of control
- T/C (endpoint: median tumor weight (est.), dose: 90.0 mg/kg/injection, schedule: Q01DX001 (ip), vehicle: carboxymethylcellulose (CMC), higher = larger tumour): 6 % of control
- T/C (endpoint: median tumor weight (est.), dose: 130.0 mg/kg/injection, schedule: Q01DX001 (ip), vehicle: carboxymethylcellulose (CMC), higher = larger tumour): 8 % of control

SMILES: FCCNC1CCCCC1
- T/C (endpoint: mean tumor weight, dose: 1.5 mg/kg/injection, schedule: Q01DX011 (ip), vehicle: carboxymethylcellulose (CMC), higher = larger tumour): 99 % of control
- T/C (endpoint: mean tumor weight, dose: 5.0 mg/kg/injection, schedule: Q01DX011 (ip), vehicle: carboxymethylcellulose (CMC), higher = larger tumour): 89 % of control
- T/C (endpoint: mean tumor weight, dose: 7.5 mg/kg/injection, schedule: Q01DX011 (ip), vehicle: carboxymethylcellulose (CMC), higher = larger tumour): 68 % of control

SMILES: C[C@]12CCC(=O)C=C1CC[C@@H]1[C@@H]2[C@@H](O)C[C@@]2(C)[C@H]1CC[C@]2(O)C(=O)COC(=O)CCC(=O)O
- T/C (endpoint: mean tumor weight, dose: 87.5 mg/kg/injection, schedule: Q01DX011 (sc), vehicle: steriod suspending solution, higher = larger tumour): 76 % of control
- T/C (endpoint: mean tumor weight, dose: 175.0 mg/kg/injection, schedule: Q01DX011 (sc), vehicle: steriod suspending solution, higher = larger tumour): 79 % of control
- T/C (endpoint: mean tumor weight, dose: 350.0 mg/kg/injection, schedule: Q01DX011 (sc), vehicle: steriod suspending solution, higher = larger tumour): 66 % of control
- T/C (endpoint: mean tumor weight, dose: 500.0 mg/kg/injection, schedule: Q01DX011 (sc), vehicle: steriod suspending solution, higher = larger tumour): 26 % of control
- T/C (endpoint: mean tumor weight, dose: 700.0 mg/kg/injection, schedule: Q01DX011 (sc), vehicle: steriod suspending solution, higher = larger tumour): 72 % of control

SMILES: O=CC(NC(=O)N(CCCl)N=O)C(O)C(O)C(O)CO (stereo not drawn)
- T/C (endpoint: median survival time, dose: 1.25 mg/kg/injection, schedule: Q01DX009 (ip), vehicle: saline, higher = longer survival): 121 % of control
- T/C (endpoint: median survival time, dose: 2.5 mg/kg/injection, schedule: Q01DX009 (ip), vehicle: saline, higher = longer survival): 112 % of control
- T/C (endpoint: median survival time, dose: 3.3 mg/kg/injection, schedule: Q01DX009 (ip), vehicle: saline, higher = longer survival): 105 % of control
- T/C (endpoint: median survival time, dose: 4.9 mg/kg/injection, schedule: Q01DX009 (ip), vehicle: saline, higher = longer survival): 102 % of control
- T/C (endpoint: median survival time, dose: 5.0 mg/kg/injection, schedule: Q01DX009 (ip), vehicle: saline, higher = longer survival): 118 % of control
- T/C (endpoint: median survival time, dose: 7.4 mg/kg/injection, schedule: Q01DX009 (ip), vehicle: saline, higher = longer survival): 96 % of control
- T/C (endpoint: median survival time, dose: 10.0 mg/kg/injection, schedule: Q01DX001 (ip), vehicle: Klucel (hydroxypropylcellulose) (HPC), higher = longer survival): 88 % of control and 109 % of control
- T/C (endpoint: median survival time, dose: 10.0 mg/kg/injection, schedule: Q01DX009 (ip), vehicle: saline, higher = longer survival): 111 % of control
- T/C (endpoint: median survival time, dose: 12.0 mg/kg/injection, schedule: Q04DX003 (ip), vehicle: saline, higher = longer survival): 93 % of control
- T/C (endpoint: median survival time, dose: 16.0 mg/kg/injection, schedule: Q01DX001 (ip), vehicle: saline, higher = longer survival): 110 % of control
- T/C (endpoint: median survival time, dose: 18.0 mg/kg/injection, schedule: Q04DX003 (ip), vehicle: saline, higher = longer survival): 108 % of control
- T/C (endpoint: median survival time, dose: 20.0 mg/kg/injection, schedule: Q01DX001 (ip), vehicle: Klucel (hydroxypropylcellulose) (HPC), higher = longer survival): 95 % of control
- T/C (endpoint: median survival time, dose: 24.0 mg/kg/injection, schedule: Q01DX001 (ip), vehicle: saline, higher = longer survival): 96 % of control
- T/C (endpoint: median survival time, dose: 36.0 mg/kg/injection, schedule: Q01DX001 (ip), vehicle: saline, higher = longer survival): 98 % of control

SMILES: c1ccc2ncccc2c1
- T/C (endpoint: mean tumor weight, dose: 25.0 mg/kg/injection, schedule: Q01DX011 (ip), vehicle: saline, higher = larger tumour): 81 % of control
- T/C [1]: 49 % of control

SMILES: CC1(C)[C@@H]2CC[C@]1(C)[C@H](O)C2
- T/C [1]: 100 % of control
- T/C (endpoint: mean tumor weight, dose: 100.0 mg/kg/injection, schedule: Q01DX011 (ip), vehicle: saline, higher = larger tumour): 95 % of control
- T/C (endpoint: mean tumor weight, dose: 200.0 mg/kg/injection, schedule: Q01DX011 (ip), vehicle: saline, higher = larger tumour): 79 % of control
- T/C (endpoint: mean tumor weight, dose: 400.0 mg/kg/injection, schedule: Q01DX011 (ip), vehicle: saline, higher = larger tumour): 100 % of control

SMILES: CNC=O
- T/C (endpoint: mean tumor weight, dose: 250.0 mg/kg/injection, schedule: Q01DX011 (ip), vehicle: saline, higher = larger tumour): 67 % of control and 69 % of control
- T/C (endpoint: mean tumor weight, dose: 500.0 mg/kg/injection, schedule: Q01DX011 (ip), vehicle: saline, higher = larger tumour): 10 % of control and 12 % of control
